# Values quoted from earlier work in US11446274B2, “Use of dianhydrogalactitol or derivatives or analogs thereof for treatment of pediatric central nervous system malignancies” (DelMar Pharmaceuticals, Inc., priority 2015, dated 2022).
# Like-named read-outs stand apart in the source and are kept apart here.
# Tests used:
# [1] = system: cells that are either MGMT-positive or MGMT-negative or MMR-proficient or MMR-deficient; details: cited from earlier work
# [2] = target: glycogen synthase kinase-3β (GSK-3β) (Homo sapiens, UniProt P49841); details: cited from earlier work
# Chain of glycogen synthase kinase-3β (GSK-3β) (P49841 whole entry, species assumed): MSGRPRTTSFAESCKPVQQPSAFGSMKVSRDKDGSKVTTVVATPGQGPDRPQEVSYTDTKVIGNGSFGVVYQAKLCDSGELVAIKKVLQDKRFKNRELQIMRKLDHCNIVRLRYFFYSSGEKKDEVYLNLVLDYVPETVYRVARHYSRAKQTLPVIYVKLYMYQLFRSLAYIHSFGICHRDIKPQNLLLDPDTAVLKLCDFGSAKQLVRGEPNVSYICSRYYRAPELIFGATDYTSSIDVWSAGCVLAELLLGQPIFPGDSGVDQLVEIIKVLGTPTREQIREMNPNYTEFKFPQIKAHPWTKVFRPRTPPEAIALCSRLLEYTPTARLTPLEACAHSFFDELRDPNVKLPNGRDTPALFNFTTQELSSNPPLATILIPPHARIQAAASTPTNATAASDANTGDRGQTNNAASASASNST
smiles,measurement,setting,value
N.N.[Cl][Pt][Cl] [cisplatin],sensitivity,"[1]; MGMT Negative, MMR-Deficient",Resistant
same,sensitivity,"[1]; MGMT Negative, MMR-Proficient",Sensitive
same,sensitivity,"[1]; MGMT Positive, MMR-Deficient",Resistant
same,sensitivity,"[1]; MGMT Positive, MMR-Proficient",Sensitive
"CN1C(=O)/C(=C2/C(=O)Nc3ccccc32)c2ccccc21 [Meisoindigo, meisoindigo]",concentration for inhibition of GSK-3β,[2],5 to 50 nM
